This note sets out measurements from patent publication US9233954B2, “Organic amine salts of Azilsartan, preparation method and use thereof” (Jiangsu Hansoh Pharmaceutical Co., Ltd., priority 2011, dated 2016).

One series has as its system Beagle dog. The format is in vivo. Particulars: for Clinical observations: Beagle dog, intragastric. From the text:
Acute Toxicity Test Research for Beagle Dog
Object: Approximate lethal dose method was introduced in the test to observe the acute toxicity response of the animals by intragastric administration of example 2 or Azilsartan medoxomil potassium salt to Beagle dogs to study the toxicity situation of example 2 after administration and compare the toxicity of example 2 and Azilsartan medoxomil potassium salt, which can provide reference confirmation for the evaluation of toxicity of example 2.
Method (approximate lethal dose method): 6 Beagle dogs were used, 3 for each of example 2 group and Azilsartan medoxomil potassium salt group. The administration dosage was 0.09, 0.13, 0.19, 0.28, 0.42, 0.63, 0.95, 1.42, 2.13, 3.20 g·kg^−1 respectively, wherein 3.20 g·kg^−1 was the maximum administration dosage (corresponding to 1081 times the given dosage for the clinical patient). The blood was collected before administration and on days 2, 7, and 14 after administration to test the corresponding biochemical indicators. Electrocardiogram, body weight, and body temperature were determined before administration and on days 7 and 14 after administration.

Another series in a line: Hygroscopicity test. Particulars: 25° C.±1° C., RH 80%±2%, 24 h. In kind it is physicochemical. How it is done:
1. A dried glass weighing bottle (Outer diameter […]) with a plug was put into an artificial climate box under the temperature of 25° C.±1° C. and relative humidity (RH) of 80%±2% the day before and then weighed precisely (m1).
2. The testing sample was weighed precisely (m2) and lain into the weighing bottle. The thickness of the test sample was about 1 mm.
3. The uncovered weighing bottle and its plug were placed under the above constant temperature and humidity conditions for 24 h.
4. The weighing bottle was covered and weighed precisely (m3).
Calculation formula: Percent of weight increase=(m3−m2)/(m2−m1)*100%
5. Definition of the weight increase of the hygroscopicity
Deliquescence: absorbing enough water to form liquid.
High hygroscopicity: the weight increase of the hygroscopicity is no less than 15%
Having hygroscopicity: the weight increase of the hygroscopicity is between 15% and 2%
Slight hygroscopicity: the weight increase of the hygroscopicity is between 2% and 0.2%
No or almost no hygroscopicity: the weight increase of the hygroscopicity is less than 0.2%

The next series in a line: Solubility test. Particulars: conclusion of the solubility test.
In series [1] the test system is blood pressure of SHR rats. In words: Antihypertensive effect test for spontaneously hypertensive (SHR) rats. The format is in vivo. Particulars: 10 mg/kg. How it is done:
Antihypertensive Effect Test For Spontaneously Hypertensive (SHR) Rats
38 of 25 week old SHR male rats were randomly divided into 4 groups according to the initial blood pressure, with 6 for the control group (solvent) and 8 for other groups. 10 mg/kg of example 2 compound (Choline Azilsartan), example 4 compound (Azilsartan ethanolamine salts) and control (Azilsartan medoxomil potassium salt) were continuously administered, respectively. The solvent control group was administered solvent. The administration volume was 5 ml/kg and the period was 2 weeks.

Where a name gives a salt, the structure may show the parent alone. Read-outs that look alike come from different tables or passages of the source.

Method for Solubility test: Moreover, “1:40” refers to 1 g of sample was dissolved in 40 ml of methanol at room temperature, the same as “1:80”; “1:120” refers to 1 g of sample was dissolved in 40 ml of ethanol at room temperature, the same as “1:200”.

`CCOc1nc2cccc(C(=O)OCc3oc(=O)oc3C)c2n1Cc1ccc(-c2ccccc2-c2noc(=O)[nH]2)cc1` [Azilsartan kamedoxomil, Azilsartan medoxomil potassium salt, reference compound]: in the series on Beagle dog (1.42 g·kg^−1 dosage group), the Clinical observations entry is “vomit, less moving; moving reduction on day 2 after administration, moving recovered on day 3 and no abnormality observed after day 3”. For the same compound, the Clinical observations entry with Beagle dog (2.13 g·kg^−1 dosage group) was “vomit, drooling, moving reduction; moving reduction on day 2 after administration, moving recovered on day 3 and no abnormality observed after day 3”. In the series with Beagle dog (3.20 g·kg^−1 dosage group), the Clinical observations result is listed as “vomit, drooling, less moving; moving reduction on days 2˜8, prostration on days 5˜8, died on day 9”. In addition, in the series on Beagle dog (dog, in vivo), the Body temperature result was “no abnormality on day 7 after administration”; the Body weight entry is “decreased on day 7 after administration compared with pre-administration”; the “Electrocardiogram and haematological indicators” value is reported as “not abnormal on day 7 after administration”; the PT values result was “reduced significantly after administration compared to pre-administration”. For the same compound, the “Systolic blood pressure and diastolic blood pressure” value in the series on Beagle dog (dog, in vivo) was “reduced more or less on day 2 after administration”.

As for `CCOc1nc2cccc(C(=O)[O-])c2n1Cc1ccc(-c2ccccc2-c2noc(=O)[nH]2)cc1.C[N+](C)(C)CCO` [Example 1], in “Hygroscopicity test”, the “Conclusion (hygroscopic or not)” value was “Yes” and the “Hygroscopicity (percent of weight increase)” value stood at 10.51%. The “Solubility, comparison between samples” value in the series “Solubility test” was “comparable to the solubility of example 2 compound”.

On to `CCOc1nc2cccc(C(=O)O)c2n1Cc1ccc(-c2ccccc2-c2noc(=O)[nH]2)cc1.NCCO` [Example 3], for which, in the series “Hygroscopicity test”, the “Conclusion (hygroscopic or not)” value was “Yes” and the “Hygroscopicity (percent of weight increase)” value came to 5.66%.

Consider `CCOc1nc2cccc(C(=O)O)c2n1Cc1ccc(-c2ccccc2-c2noc(=O)[nH]2)cc1.CCOc1nc2cccc(C(=O)O)c2n1Cc1ccc(-c2ccccc2-c2noc(=O)[nH]2)cc1.NCCO` [Example 4], for which, in series [1] (SHR rats, 2 weeks), the “Antihypertensive effect compared with control (Azilsartan medoxomil potassium salt)” value is recorded as “superior to the antihypertensive effect of control” and the “Antihypertensive effect, ranking under the same dosage” value is “less effective”. Further, in series [1] (continuously administered for one or two weeks, FIG. 4), the “Effect on blood pressure of SHR rats compared with solvent control” value is “reduce the blood pressure of SHR rats significantly”. In addition, the “Hygroscopicity (percent of weight increase)” value in “Hygroscopicity test” is reported as 0.08%. Also, the “Conclusion (hygroscopic or not)” value in “Hygroscopicity test” (listed as Example 4 Compound) is recorded as “No”. The “Conclusion (hygroscopic or not)” value in the series “Hygroscopicity test” (listed as example 4 compound) is recorded as “not hygroscopic”.
